{
  "source": "paper PMC12349723",
  "about": "“Computationally accelerated identification of P-glycoprotein inhibitors” (PLOS One, 2025)",
  "key": {"P-gp [1]": {"target": "T1, P-gp (Homo sapiens, UniProt P08183)", "T1 construct": "The MDR, P-gp overexpressing DU145-TXR cells were maintained under positive selection pressure; endogenous in cells; host or cells: DU145-TXR (paclitaxel-resistant sub-line of DU145 human prostate cancer cells)", "T1 sequence (P08183 whole entry)": "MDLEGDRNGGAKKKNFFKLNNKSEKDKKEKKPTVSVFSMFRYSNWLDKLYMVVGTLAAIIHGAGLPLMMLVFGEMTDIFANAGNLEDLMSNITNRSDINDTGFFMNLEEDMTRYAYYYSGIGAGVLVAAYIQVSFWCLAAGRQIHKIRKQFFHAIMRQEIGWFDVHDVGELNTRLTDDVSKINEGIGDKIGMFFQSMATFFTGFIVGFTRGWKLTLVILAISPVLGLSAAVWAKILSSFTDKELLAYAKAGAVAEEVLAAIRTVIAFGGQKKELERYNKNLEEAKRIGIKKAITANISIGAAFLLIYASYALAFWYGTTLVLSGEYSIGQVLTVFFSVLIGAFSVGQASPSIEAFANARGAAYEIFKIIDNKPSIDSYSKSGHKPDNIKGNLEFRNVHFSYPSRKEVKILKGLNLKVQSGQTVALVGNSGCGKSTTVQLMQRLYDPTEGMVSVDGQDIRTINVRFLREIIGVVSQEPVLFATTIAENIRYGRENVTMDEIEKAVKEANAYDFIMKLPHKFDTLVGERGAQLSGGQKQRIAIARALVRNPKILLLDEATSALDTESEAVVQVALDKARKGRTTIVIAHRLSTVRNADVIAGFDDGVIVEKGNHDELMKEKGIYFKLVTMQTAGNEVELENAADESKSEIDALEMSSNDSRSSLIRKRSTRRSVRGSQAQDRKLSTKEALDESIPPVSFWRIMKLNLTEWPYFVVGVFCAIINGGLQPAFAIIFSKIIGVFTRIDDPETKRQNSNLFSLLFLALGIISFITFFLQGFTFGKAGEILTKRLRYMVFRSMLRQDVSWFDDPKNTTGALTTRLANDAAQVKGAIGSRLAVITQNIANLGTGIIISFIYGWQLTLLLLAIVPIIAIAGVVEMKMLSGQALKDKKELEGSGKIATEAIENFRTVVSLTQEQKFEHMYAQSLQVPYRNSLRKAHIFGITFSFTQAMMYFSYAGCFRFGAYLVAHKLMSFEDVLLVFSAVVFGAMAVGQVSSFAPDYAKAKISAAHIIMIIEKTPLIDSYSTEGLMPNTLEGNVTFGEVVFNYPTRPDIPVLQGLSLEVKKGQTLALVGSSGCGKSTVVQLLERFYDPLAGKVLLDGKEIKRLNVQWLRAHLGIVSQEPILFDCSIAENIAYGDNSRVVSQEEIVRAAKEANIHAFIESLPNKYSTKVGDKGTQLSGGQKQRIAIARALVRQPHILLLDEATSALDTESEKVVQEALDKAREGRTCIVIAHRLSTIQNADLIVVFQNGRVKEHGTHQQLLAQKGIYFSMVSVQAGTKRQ", "test": "Daunorubicin accumulation (fluorescence) assay in DU145-TXR cells", "type": "cell-based", "settings": "for Significance (DAU + compound vs DAU alone): Student's T test of the mean; for Effect on DAU fluorescence / intracellular DAU retention: DU145-TXR, 10 µM compound + 10 µM DAU, 2 h", "description": "These assays are based upon those reported in [9]. DU145-TXR cells were seeded in 96 well plates in complete RPMI medium at 15,000 cells per well. Cells were allowed to grow for 48 hours in a humidified incubator at 37 °C and 5% CO2. After 48 hours, media was replaced with fresh complete RPMI medium. Cells were treated with 10 µM of experimental compound with or without 10 µM daunorubicin (DAU). After a 2-hour incubation at 37 °C and 5% CO2 in a humidified incubator, media was removed with a vacuum aspirator, and cells were washed twice with ice-cold phosphate buffered saline (PBS) solution. Cells were lysed in PBS containing 0.5% SDS and 0.5% Triton X-100 and shaken on an Orbital Shaker for 10 min at 500 rpm. […] Data are the mean ± one standard deviation from three independent experiments, 3 samples per experiment. Statistical significance was determined with a Student’s T test in GraphPad prism.\nΔ DAU Fluorescence= Fluorescence of (Compound+DAU) treated cells/Fluorescence of DAU treated cells\nThese assays used the P-gp highly overexpressing DU145-TXR cell line. In this assay, the intrinsic fluorescence of DAU was used to quantify its relative concentration in the cell. An increase in fluorescence correlates with an increase in the intracellular accumulation of DAU. […] Cells were treated with 10 µM of experimental compound with or without 10 µM DAU. After a 2-hour incubation, cells were washed and lysed, and the total fluorescence of DAU in each well was quantified.\nFig 5 Change in fluorescence of DAU in the presence of experimental compounds. Fold change in fluorescence of the P-gp substrate Daunorubicin (DAU) in the presence or absence of experimental compounds or known P-gp modulators. Cells were treated with 10 µM compound in the presence or absence of 10 µM DAU. After washing and lysing the cells, the intracellular DAU fluorescence was measured and expressed as a fold change relative to the fluorescence of DU145-TXR cells treated with DAU alone. […] Three samples per trial, three independent trials. Significance was determined using a Student’s T test of the mean by comparing fluorescence of DAU and compound to that of DAU alone; P > 0.05 = N.S., P < 0.05 = *, P < 0.01 = **, P < 0.001 = ***, P < 0.0001 = ****. Data also shown in S4 Fig."}, "P-gp [2]": {"system": "P-gp", "parameters": "method as in earlier work", "settings": "ref [66-68]; cited from earlier work"}},
  "note": "Entries after “also recorded” stand apart in the source; their conditions may differ.",
  "data": [
    {"smiles": "O=S(=O)(CCSc1nnc(-c2ccccc2)c2ccccc12)c1ccccc1", "note": "[Compound 96, O=S(=O)(CCSc1nnc(-c2ccccc2)c2ccccc12)c1ccccc1]", "values": [
      {"measurement": "Significance (DAU + compound vs DAU alone)", "setting": "P-gp [1]", "value": "**** (P < 0.0001 = ****)"}
    ]},
    {"smiles": "Cn1cnnc1SCc1c(C(=O)O)nnn1-c1nonc1N", "note": "[Compound 59, Cn1cnnc1SCc1c(nnn1-c1nonc1N)C(O)=O]", "values": [
      {"measurement": "Significance (DAU + compound vs DAU alone)", "setting": "P-gp [1]", "value": "N.S. (P > 0.05 = N.S.)"}
    ]},
    {"smiles": "O=C(c1nc(-c2ccc3cc[nH]c3c2)no1)N1CCN(c2nsc3ccccc23)CC1", "note": "[Compound 70, O=C(N1CCN(CC1)c1nsc2ccccc12)c1nc(no1)-c1ccc2cc[nH]c2c1]", "values": [
      {"measurement": "Significance (DAU + compound vs DAU alone)", "setting": "P-gp [1]", "value": "* (P < 0.05 = *)"}
    ]},
    {"smiles": "Cc1onc(-c2ccccc2)c1-c1nnc(Cn2cnc3ccccc3c2=O)o1", "note": "[Compound 111, Cc1onc(c1-c1nnc(Cn2cnc3ccccc3c2=O)o1)-c1ccccc1]", "values": [
      {"measurement": "Effect on DAU fluorescence / intracellular DAU retention", "setting": "P-gp [1]", "value": "did not cause an increase in intracellular DAU retention"},
      {"measurement": "Significance (DAU + compound vs DAU alone)", "setting": "P-gp [1]", "value": "N.S. (P > 0.05 = N.S.)"}
    ]},
    {"smiles": "COc1cc2c(cc1OC)CN(CCc1ccc(NC(=O)c3cc(OC)c(OC)cc3NC(=O)c3cnc4ccccc4c3)cc1)CC2", "note": "[Tariquidar, reference compound]", "values": [
      {"measurement": "P-gp Substrate? (known transport substrate of P-gp)", "setting": "P-gp [2]", "value": "Yes"},
      {"measurement": "Significance (DAU + compound vs DAU alone)", "setting": "P-gp [1]", "value": "**** (P < 0.0001 = ****)"}
    ]},
    {"smiles": "COc1cccc(N2CCN(c3ccc4nnc(CCC(=O)Nc5ccc(F)c(F)c5)n4n3)CC2)c1", "note": "[Compound 101, COc1cccc(c1)N1CCN(CC1)c1ccc2nnc(CCC(=O)Nc3ccc(F)c(F)c3)n2n1]", "values": [
      {"measurement": "Significance (DAU + compound vs DAU alone)", "setting": "P-gp [1]", "value": "**** (P < 0.0001 = ****)"}
    ]},
    {"smiles": "Cc1ccc(-c2noc(-c3cn(Cc4ccc(NS(=O)(=O)c5ccccc5F)cc4)cn3)n2)cc1", "note": "[Compound 103, Cc1ccc(cc1)-c1noc(n1)-c1cn(Cc2ccc(NS(=O)(=O)c3ccccc3F)cc2)cn1]", "values": [
      {"measurement": "Significance (DAU + compound vs DAU alone)", "setting": "P-gp [1]", "value": "** (P < 0.01 = **)"}
    ]},
    {"smiles": "Cc1onc(-c2ccccc2)c1-c1nnc(Cn2cnc3c(oc4ccccc43)c2=O)o1", "note": "[Compound 78, Cc1onc(c1-c1nnc(Cn2cnc3c4ccccc4oc3c2=O)o1)-c1ccccc1]", "values": [
      {"measurement": "Effect on DAU fluorescence / intracellular DAU retention", "setting": "P-gp [1]", "value": "significant decrease in fluorescence; also recorded: did not cause an increase in intracellular DAU retention"},
      {"measurement": "Significance (DAU + compound vs DAU alone)", "setting": "P-gp [1]", "value": "* (P < 0.05 = *)"}
    ]},
    {"smiles": "O=S(=O)(Cc1nc2ccccc2n1CC(O)c1ccc(Cl)cc1)c1ccccc1", "note": "(stereo not drawn) [Compound 97, OC(Cn1c(CS(=O)(=O)c2ccccc2)nc2ccccc12)c1ccc(Cl)cc1]", "values": [
      {"measurement": "Significance (DAU + compound vs DAU alone)", "setting": "P-gp [1]", "value": "**** (P < 0.0001 = ****)"}
    ]}
  ]
}
